Experimental data as given in PubChem BioAssay (NCI).
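Test compounds were applied to cells in 96-well plates for 48 hours at 5 doses. GI50: concentration for 50% inhibition of growth. Definition used: TGI = concentration required for complete inhibition of growth.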

Legend:
Assay in all cases: inhibition of tumour cell growth, NCI panel, 48 h
786-0 renal = tested on: 786-0 renal
A498 renal = tested on: A498 renal
A549 NSCLC = tested on: A549 NSCLC
ACHN renal = tested on: ACHN renal
CAKI-1 renal = tested on: CAKI-1 renal
CCRF-CEM leukemia = tested on: CCRF-CEM leukemia
COLO 205 colon = tested on: COLO 205 colon
DU-145 prostate = tested on: DU-145 prostate
EKVX NSCLC = tested on: EKVX NSCLC
HCC-2998 colon = tested on: HCC-2998 colon
HCT-116 colon = tested on: HCT-116 colon
HCT-15 colon = tested on: HCT-15 colon
HL-60(TB) leukemia = tested on: HL-60(TB) leukemia
HOP-62 NSCLC = tested on: HOP-62 NSCLC
HOP-92 NSCLC = tested on: HOP-92 NSCLC
HS 578T breast = tested on: HS 578T breast
HT29 colon = tested on: HT29 colon
IGROV1 ovarian = tested on: IGROV1 ovarian
KM12 colon = tested on: KM12 colon
LOX IMVI melanoma = tested on: LOX IMVI melanoma
M14 melanoma = tested on: M14 melanoma
MALME-3M melanoma = tested on: MALME-3M melanoma
MCF7 breast = tested on: MCF7 breast
MDA-MB-435 = tested on: MDA-MB-435
MDA-MB-468 breast = tested on: MDA-MB-468 breast
MOLT-4 leukemia = tested on: MOLT-4 leukemia
NCI-H226 lung = tested on: NCI-H226 lung
NCI-H23 lung = tested on: NCI-H23 lung
NCI-H460 lung = tested on: NCI-H460 lung
NCI-H522 lung = tested on: NCI-H522 lung
NCI/ADR-RES ovarian = tested on: NCI/ADR-RES ovarian
OVCAR-3 ovarian = tested on: OVCAR-3 ovarian
OVCAR-4 ovarian = tested on: OVCAR-4 ovarian
OVCAR-5 ovarian = tested on: OVCAR-5 ovarian
OVCAR-8 ovarian = tested on: OVCAR-8 ovarian
PC-3 prostate = tested on: PC-3 prostate
RXF 393 renal = tested on: RXF 393 renal
SF-268 CNS = tested on: SF-268 CNS
SK-MEL-2 melanoma = tested on: SK-MEL-2 melanoma
SK-MEL-28 melanoma = tested on: SK-MEL-28 melanoma
SK-MEL-5 melanoma = tested on: SK-MEL-5 melanoma
SK-OV-3 ovarian = tested on: SK-OV-3 ovarian
SN12C renal = tested on: SN12C renal
SNB-19 CNS = tested on: SNB-19 CNS
SNB-75 CNS = tested on: SNB-75 CNS
SR leukemia = tested on: SR leukemia
SW-620 colon = tested on: SW-620 colon
T-47D breast = tested on: T-47D breast
TK-10 renal = tested on: TK-10 renal
U251 CNS = tested on: U251 CNS
UACC-257 melanoma = tested on: UACC-257 melanoma
UACC-62 melanoma = tested on: UACC-62 melanoma
UO-31 renal = tested on: UO-31 renal

Which results are given for `O=C(OCCOCCO)N(c1cccc(Br)c1)c1nc(SCCN2CCOCC2)nc2c1cnn2CC(Cl)c1ccc(Br)cc1` (configuration not stated)?
GI50 (786-0 renal): 2510 nM; TGI (786-0 renal): > 100 µM; GI50 (A498 renal): > 100 µM; TGI (A498 renal): > 100 µM; GI50 (A549 NSCLC): 5.04 µM; TGI (A549 NSCLC): > 100 µM; GI50 (ACHN renal): 3.9 µM; TGI (ACHN renal): > 100 µM; GI50 (CAKI-1 renal): 4.38 µM; TGI (CAKI-1 renal): > 100 µM; GI50 (CCRF-CEM leukemia): 2890 nM; TGI (CCRF-CEM leukemia): 12.1 µM; GI50 (COLO 205 colon): 1990 nM; TGI (COLO 205 colon): 4.43 µM; GI50 (DU-145 prostate): 9.88 µM; TGI (DU-145 prostate): > 100 µM; GI50 (EKVX NSCLC): 5.55 µM; TGI (EKVX NSCLC): > 100 µM; GI50 (HCC-2998 colon): 3.84 µM; TGI (HCC-2998 colon): > 100 µM; GI50 (HCT-116 colon): 2620 nM; TGI (HCT-116 colon): > 100 µM; GI50 (HCT-15 colon): 2840 nM; TGI (HCT-15 colon): 10.1 µM; GI50 (HL-60(TB) leukemia): 2360 nM; TGI (HL-60(TB) leukemia): 6.25 µM; GI50 (HOP-62 NSCLC): 4.41 µM; TGI (HOP-62 NSCLC): > 100 µM; GI50 (HOP-92 NSCLC): 7.62 µM; TGI (HOP-92 NSCLC): > 100 µM; GI50 (HS 578T breast): 3.59 µM; TGI (HS 578T breast): > 100 µM; GI50 (HT29 colon): 2730 nM; TGI (HT29 colon): > 100 µM; GI50 (IGROV1 ovarian): 8.25 µM; TGI (IGROV1 ovarian): > 100 µM; GI50 (KM12 colon): 3.88 µM; TGI (KM12 colon): > 100 µM; GI50 (LOX IMVI melanoma): 1720 nM; TGI (LOX IMVI melanoma): 3.21 µM; GI50 (M14 melanoma): 3.67 µM; TGI (M14 melanoma): > 100 µM; GI50 (MALME-3M melanoma): 3.17 µM; TGI (MALME-3M melanoma): 17.8 µM; GI50 (MCF7 breast): 3.15 µM; TGI (MCF7 breast): > 100 µM; GI50 (MDA-MB-435): 3.83 µM; TGI (MDA-MB-435): > 100 µM; GI50 (MDA-MB-468 breast): 2470 nM; TGI (MDA-MB-468 breast): 7.63 µM; GI50 (MOLT-4 leukemia): 2310 nM; TGI (MOLT-4 leukemia): 6.51 µM; GI50 (NCI-H226 lung): 5.63 µM; TGI (NCI-H226 lung): > 100 µM; GI50 (NCI-H23 lung): 3.27 µM; TGI (NCI-H23 lung): 15 µM; GI50 (NCI-H460 lung): 3.77 µM; TGI (NCI-H460 lung): > 100 µM; GI50 (NCI-H522 lung): 3.15 µM; TGI (NCI-H522 lung): 13.1 µM; GI50 (NCI/ADR-RES ovarian): 3.52 µM; TGI (NCI/ADR-RES ovarian): > 100 µM; GI50 (OVCAR-3 ovarian): 5.54 µM; TGI (OVCAR-3 ovarian): > 100 µM; GI50 (OVCAR-4 ovarian): 3.05 µM; TGI (OVCAR-4 ovarian): > 100 µM; GI50 (OVCAR-5 ovarian): 5.15 µM; TGI (OVCAR-5 ovarian): > 100 µM; GI50 (OVCAR-8 ovarian): 6.93 µM; TGI (OVCAR-8 ovarian): > 100 µM; GI50 (PC-3 prostate): 3.28 µM; TGI (PC-3 prostate): > 100 µM; GI50 (RXF 393 renal): 1780 nM; TGI (RXF 393 renal): 5.05 µM; GI50 (SF-268 CNS): 4.82 µM; TGI (SF-268 CNS): > 100 µM; GI50 (SK-MEL-2 melanoma): 6.68 µM; TGI (SK-MEL-2 melanoma): 22.1 µM; GI50 (SK-MEL-28 melanoma): 3.35 µM; TGI (SK-MEL-28 melanoma): 18 µM; GI50 (SK-MEL-5 melanoma): 10.1 µM; TGI (SK-MEL-5 melanoma): 70.7 µM; GI50 (SK-OV-3 ovarian): 5.21 µM; TGI (SK-OV-3 ovarian): > 100 µM; GI50 (SN12C renal): 4.91 µM; TGI (SN12C renal): > 100 µM; GI50 (SNB-19 CNS): 9.17 µM; TGI (SNB-19 CNS): 24.8 µM; GI50 (SNB-75 CNS): 3.34 µM; TGI (SNB-75 CNS): > 100 µM; GI50 (SR leukemia): 2000 nM; TGI (SR leukemia): > 100 µM; GI50 (SW-620 colon): 3.71 µM; TGI (SW-620 colon): > 100 µM; GI50 (T-47D breast): 5 µM; TGI (T-47D breast): > 100 µM; GI50 (TK-10 renal): 93.4 µM; TGI (TK-10 renal): > 100 µM; GI50 (U251 CNS): 6.39 µM; TGI (U251 CNS): > 100 µM; GI50 (UACC-257 melanoma): 10.5 µM; TGI (UACC-257 melanoma): > 100 µM; GI50 (UACC-62 melanoma): 3.33 µM; TGI (UACC-62 melanoma): 12.4 µM; GI50 (UO-31 renal): 4.57 µM; TGI (UO-31 renal): > 100 µM

Which results are given for `CC(C)=CCc1c(O)c(C(=O)CC(C)C)c(O)c2c(-c3ccccc3)cc(=O)oc12`?
GI50 (MDA-MB-468 breast): 7740 nM; TGI (MDA-MB-468 breast): 36.2 µM

Which results are given for `CCN(CC)CCOc1ccc(Cc2ccccc2)cc1`?
GI50 (MDA-MB-468 breast): 16200 nM; TGI (MDA-MB-468 breast): 41.2 µM

`C#CCOc1ccc(-c2csc(NC(=O)C=C)n2)cc1NS(=O)(=O)c1cccc2c(N(C)C)cccc12` was tested. Which GI50 (MDA-MB-468 breast) did it give?
The GI50 was 823 nM.

And the TGI (MDA-MB-468 breast)?
Its TGI is 1.71 µM.

How did the GI50 (MDA-MB-468 breast) turn out when `CC(=Nc1ccccc1)C1=C(O)C(Cc2ccc(F)cc2)NC1=O` (configuration not stated) was run?
Its GI50 is 382 nM.

What about the TGI (MDA-MB-468 breast) of the same molecule?
Its TGI is 5.22 µM.

What does the source list for `Cc1nc2ccccc2c(/C=C/c2ccccc2)c1C(=O)/C=C/c1ccccc1`?
GI50 (MDA-MB-468 breast): 1790 nM; TGI (MDA-MB-468 breast): 3.5 µM

Which GI50 (MDA-MB-468 breast) does the source give for `C[C@@H]1OC(=O)NN=C1c1ccc(-c2ccc(F)cc2)c(C(F)(F)F)c1` here?
The GI50 was 1740 nM.

And the TGI (MDA-MB-468 breast)?
The TGI was 6.61 µM.

Which GI50 (MDA-MB-468 breast) does the source give for `CCCCCCCCCCCCC(NC(C)=O)(C(=O)OCC)C(=O)OCC` here?
The GI50 was 4670 nM.

And the TGI (MDA-MB-468 breast)?
Its TGI is 18.6 µM.

Which results are given for `C[C@@]1(O)CCC[C@H]1n1c(=O)c(C(F)F)cc2cnc(NC3CCN(S(C)(=O)=O)CC3)nc21`?
GI50 (MDA-MB-468 breast): 1610 nM; TGI (MDA-MB-468 breast): 4.76 µM
